Laboratory results published in the supplement of paper PMC10307832.

How the values were obtained:
Assay in all cases: relative viability (nuclei count vs DMSO), 5 days (fraction); higher = more cells survive
Gemcitabine + OSI-027 = compound: Nc1ccn([C@@H]2O[C@H](CO)[C@@H](O)C2(F)F)c(=O)n1 [Gemcitabine] + COc1cccc2cc(-c3nc([C@H]4CC[C@H](C(=O)O)CC4)n4ncnc(N)c34)[nH]c12 [OSI-027] (partner 0.5 µM)
Method in brief: (§1)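 Values are medians from duplicate plates. Each reflects relative viability, defined as the nuclei count of treated wells over that of vehicle wells. Lung cancer cell lines in 1536-well plates were pin-tool dosed one day after seeding with one drug alone or with a fixed anchor-drug dose plus five library-drug doses (not always all listed) in √10 steps, then fixed, stained and imaged at 4× after 5 days.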

Gemcitabine + Luminespib = compound: Nc1ccn([C@@H]2O[C@H](CO)[C@@H](O)C2(F)F)c(=O)n1 [Gemcitabine] + CCNC(=O)c1noc(-c2cc(C(C)C)c(O)cc2O)c1-c1ccc(CN2CCOCC2)cc1 [Luminespib] (partner 0.01 µM)
Method in brief: as §1

Gemcitabine + Lapatinib = compound: Nc1ccn([C@@H]2O[C@H](CO)[C@@H](O)C2(F)F)c(=O)n1 [Gemcitabine] + CS(=O)(=O)CCNCc1ccc(-c2ccc3ncnc(Nc4ccc(OCc5cccc(F)c5)c(Cl)c4)c3c2)o1 [Lapatinib] (partner 2 µM)
Method in brief: as §1

Gemcitabine + Linsitinib = compound: Nc1ccn([C@@H]2O[C@H](CO)[C@@H](O)C2(F)F)c(=O)n1 [Gemcitabine] + C[C@]1(O)C[C@@H](c2nc(-c3ccc4ccc(-c5ccccc5)nc4c3)c3c(N)nccn32)C1 [Linsitinib] (partner 1 µM)
Method in brief: as §1

Cell Line | relative viability (Gemcitabine + OSI-027; first compound 0.001 µM) | relative viability (Gemcitabine + OSI-027; first compound 0.003162 µM) | relative viability (Gemcitabine + OSI-027; first compound 0.01 µM) | relative viability (Gemcitabine + OSI-027; first compound 0.03162 µM) | relative viability (Gemcitabine + OSI-027; first compound 0.1 µM) | relative viability (Gemcitabine + Luminespib; first compound 0.001 µM) | relative viability (Gemcitabine + Luminespib; first compound 0.003162 µM) | relative viability (Gemcitabine + Luminespib; first compound 0.01 µM) | relative viability (Gemcitabine + Luminespib; first compound 0.03162 µM) | relative viability (Gemcitabine + Luminespib; first compound 0.1 µM) | relative viability (Gemcitabine + Lapatinib; first compound 0.001 µM) | relative viability (Gemcitabine + Lapatinib; first compound 0.003162 µM) | relative viability (Gemcitabine + Lapatinib; first compound 0.01 µM) | relative viability (Gemcitabine + Lapatinib; first compound 0.03162 µM) | relative viability (Gemcitabine + Lapatinib; first compound 0.1 µM) | relative viability (Gemcitabine + Linsitinib; first compound 0.001 µM) | relative viability (Gemcitabine + Linsitinib; first compound 0.003162 µM) | relative viability (Gemcitabine + Linsitinib; first compound 0.01 µM) | relative viability (Gemcitabine + Linsitinib; first compound 0.03162 µM) | relative viability (Gemcitabine + Linsitinib; first compound 0.1 µM)
NCI-H838 | 0.367 | 0.441 | 0.3 | 0.245 | 0.124 | 0.286 | 0.289 | 0.241 | 0.292 | 0.18 | 1.02 | 1.22 | 0.923 | 0.282 | 0.103 | 1.05 | 1.12 | 0.933 | 0.328 | 0.14
NCI-H1437 | 0.822 | 0.734 | 0.452 | 0.297 | 0.181 | 1.08 | 1.02 | 0.645 | 0.391 | 0.191 | 0.828 | 0.737 | 0.402 | 0.157 | 0.0977 | 1.05 | 0.875 | 0.406 | 0.213 | 0.105
SK-LU-1 | 0.352 | 0.208 | 0.146 | 0.165 | 0.143 | 0.175 | 0.197 | 0.188 | 0.18 | 0.169 | 0.89 | 0.509 | 0.162 | 0.134 | 0.195 | 1.11 | 0.51 | 0.245 | 0.211 | 0.219
BEN | 0.299 | 0.274 | 0.174 | 0.167 | 0.167 | 0.528 | 0.317 | 0.14 | 0.12 | 0.107 | 0.625 | 0.529 | 0.197 | 0.112 | 0.108 | 1.07 | 0.653 | 0.255 | 0.11 | 0.0904
LC-2-ad | 0.817 | 0.578 | 0.279 | 0.195 | 0.188 | 1.15 | 0.885 | 0.832 | 0.258 | 0.219 | 0.978 | 0.917 | 0.82 | 0.188 | 0.111 | 0.895 | 0.852 | 0.553 | 0.143 | 0.132
COR-L23 | 0.955 | 0.627 | 0.264 | 0.0984 | 0.101 | 0.742 | 0.704 | 0.311 | 0.143 | 0.0841 | 1.02 | 0.896 | 0.72 | 0.105 | 0.105 | 1.19 | 0.954 | 0.467 | 0.0831 | 0.0803
RERF-LC-KJ | 0.62 | 0.508 | 0.418 | 0.261 | 0.225 | 1.17 | 1.45 | 1.13 | 0.458 | 0.319 | 0.858 | 0.821 | 0.89 | 0.909 | 0.407 | 0.856 | 0.939 | 0.821 | 0.739 | 0.296
NCI-H1915 | 0.714 | 0.63 | 0.545 | 0.479 | 0.241 | 0.826 | 0.759 | 0.693 | 0.669 | 0.356 | 0.938 | 0.877 | 0.949 | 0.925 | 0.597 | 1.12 | 1.09 | 1.11 | 0.92 | 0.442
NCI-H596 | 0.659 | 0.604 | 0.392 | 0.232 | 0.193 | 1.23 | 0.949 | 0.323 | 0.31 | 0.305 | 1.01 | 1.07 | 0.739 | 0.424 | 0.373 | 1.11 | 1.06 | 0.727 | 0.384 | 0.357
NCI-H2009 | 0.566 | 0.303 | 0.167 | 0.133 | 0.111 | 1.08 | 0.751 | 0.325 | 0.179 | 0.126 | 0.929 | 0.624 | 0.205 | 0.129 | 0.192 | 1.23 | 0.722 | 0.29 | 0.156 | 0.119
NCI-H2126 | 0.733 | 0.596 | 0.609 | 0.447 | 0.279 | 0.975 | 0.828 | 0.773 | 0.414 | 0.257 | 0.704 | 0.764 | 0.738 | 0.615 | 0.394 | 0.712 | 0.673 | 0.692 | 0.51 | 0.315
LXF-289 | 0.93 | 0.77 | 0.236 | 0.0894 | 0.105 | 0.627 | 0.706 | 0.479 | 0.106 | 0.112 | 0.922 | 0.921 | 0.783 | 0.282 | 0.141 | 0.957 | 0.953 | 0.751 | 0.147 | 0.107
NCI-H1563 | 0.761 | 0.726 | 0.631 | 0.5 | 0.545 | 0.522 | 0.549 | 0.585 | 0.483 | 0.441 | 1.01 | 1.19 | 0.901 | 0.704 | 0.612 | 1.5 | 1.12 | 1.08 | 0.734 | 0.531
HCC-44 | 0.562 | 0.352 | 0.357 | 0.178 | 0.155 | 1.07 | 0.979 | 0.813 | 0.261 | 0.226 | 1.01 | 0.98 | 0.897 | 0.477 | 0.17 | 0.628 | 0.672 | 0.589 | 0.166 | 0.143
PC-14 | 0.595 | 0.156 | 0.0375 | 0.0459 | 0.0298 | 0.155 | 0.135 | 0.132 | 0.08 | 0.109 | 0.323 | 0.234 | 0.203 | 0.0925 | 0.0562 | 0.936 | 0.6 | 0.366 | 0.147 | 0.0669
HOP-62 | 0.681 | 0.557 | 0.141 | 0.127 | 0.0935 | 0.968 | 0.852 | 0.376 | 0.107 | 0.106 | 0.961 | 0.863 | 0.301 | 0.0724 | 0.0756 | 1.07 | 0.815 | 0.129 | 0.0627 | 0.056
